Measured values as given in patent US20220395497A1, “Cancer Treatment Using Camptothecin Derivatives” (priority 2019, published 2022).
Where “and” joins values, the source holds several entries; their conditions need not be identical. Identical values can stand only once.

System: adults with recurrence of glioblastoma multiforme (GBM)
Test: Phase 2 open-label study of IV AR-67 (7.5 mg/m2 once daily for 5 days, 21-day cycle) in recurrent GBM: adverse events (Safety Population, NCI-CTCAE). Cohort 1 = not received or not recently failed (>90 days) bevacizumab; Cohort 2 = recently (<90 days) failed bevacizumab
Type: in vivo, human
Procedure: This solution was reconstituted in dextrose 5% in water to a final concentration between 0.06-0.6 mg/mL Drug (7.5 mg/m2) was to be given until the onset of toxicity requiring discontinuation or tumor progression. Tumor response was assessed=14d after every second cycle and before every third cycle using MRI.

[1] = All Patients, N = 45, possibly, probably, or definitely related

CC[C@@]1(O)C(=O)OCc2c1cc1n(c2=O)Cc2c-1nc1ccc(O)cc1c2[Si](C)(C)C(C)(C)C [AR-67, (205)-7-tert-butyldimethysilyl-10-hydroxycamptothecin]
TEAEs associated with laboratory abnormalities assessed as Grade 4 in toxicity, events (All Patients): Three
headache as TEAE leading to discontinuation, patients (All Patients): 3
patients with AR-67 permanently discontinued due to an SAE (All Patients): Three
patients with AR-67 temporarily interrupted or stopped due to an SAE (All Patients): Six
patients with dose modification due to an SAE (All Patients): 2
thrombocytopenia, anaemia, neutropenia, and leukopenia, each occurring in % of all patients (All Patients): 11-18%
Death, No of Events (All Patients, N = 45): 3
Death, patients (%) (All Patients, N = 45): (6.7) %
SAE, No of Events (All Patients, N = 45): 30
TEAE Anaemia, patients (%) (All Patients, N = 45): 15.6%
TEAE Confusional state, patients (%) (All Patients, N = 45): 11.1%
TEAE Constipation, patients (%) (All Patients, N = 45): 20.0%
TEAE Convulsion, patients (%) (All Patients, N = 45): 8.9%
TEAE Definitely Related to AR-67, No of Events (All Patients, N = 45): 55
TEAE Diarrhoea, patients (%) (All Patients, N = 45): 15.6%
TEAE Dizziness, patients (%) (All Patients, N = 45): 11.1%
TEAE Dyspepsia, patients (%) (All Patients, N = 45): 8.9%
TEAE Eye Disorders, patients (%) (All Patients, N = 45): 8.9%
TEAE Flushing, patients (%) (All Patients, N = 45): 11.1%
TEAE Gastrointestinal Disorders, patients (%) (All Patients, N = 45): (51.1) %
TEAE General Disorders and Administration Site Conditions, patients (%) (All Patients, N = 45): (37.8) %
TEAE Headache, patients (%) (All Patients, N = 45): (22.2) %
TEAE Hiccups, patients (%) (All Patients, N = 45): 11.1%
TEAE Hyperglycaemia, patients (%) (All Patients, N = 45): 8.9%
TEAE Hypopho sphataemia, patients (%) (All Patients, N = 45): 8.9%
TEAE Intensity Life Threatening, No of Events (All Patients, N = 45): 4
TEAE Intensity Life Threatening, patients (%) (All Patients, N = 45): (8.9) %
TEAE Intensity Mild, No of Events (All Patients, N = 45): 212/428 and 212
TEAE Intensity Mild, patients (%) (All Patients, N = 45): (68.9) %
TEAE Intensity Moderate, No of Events (All Patients, N = 45): 128/428 and 128
TEAE Intensity Moderate, patients (%) (All Patients, N = 45): (57.8) %
TEAE Intensity Severe, No of Events (All Patients, N = 45): 75
TEAE Intensity Severe, patients (%) (All Patients, N = 45): (62.2) %
TEAE Leukopenia, patients (%) (All Patients, N = 45): 11.1%
TEAE Lymphocyte count decreased, patients (%) (All Patients, N = 45): 11.1%
TEAE Muscular weakness, patients (%) (All Patients, N = 45): 11.1%
TEAE Musculoskeletal and Connective Tissue Disorders, patients (%) (All Patients, N = 45): (28.9) %
TEAE Musculoskeletal pain, patients (%) (All Patients, N = 45): 6.7%
TEAE NCI-CTCAE Grade 1, No of Events (All Patients, N = 45): 209
TEAE NCI-CTCAE Grade 1, patients (%) (All Patients, N = 45): (66.7) %
TEAE NCI-CTCAE Grade 2, No of Events (All Patients, N = 45): 119
TEAE NCI-CTCAE Grade 2, patients (%) (All Patients, N = 45): (51.1) %
TEAE NCI-CTCAE Grade 3, No of Events (All Patients, N = 45): 82
TEAE NCI-CTCAE Grade 3, patients (%) (All Patients, N = 45): (66.7) %
TEAE NCI-CTCAE Grade 4, No of Events (All Patients, N = 45): 9
TEAE NCI-CTCAE Grade 4, patients (%) (All Patients, N = 45): (20.0) %
TEAE Nausea, patients (%) (All Patients, N = 45): 20.0%
TEAE Nervous System Disorders, patients (%) (All Patients, N = 45): (51.1) %
TEAE Neutropenia, patients (%) (All Patients, N = 45): 13.3%
TEAE Neutrophil count decreased, patients (%) (All Patients, N = 45): 13.3%
TEAE Not Related to AR-67, No of Events (All Patients, N = 45): 117
TEAE Platelet count decreased, patients (%) (All Patients, N = 45): 8.9%
TEAE Possibly Related to AR-67, No of Events (All Patients, N = 45): 170
TEAE Probably Related to AR-67, No of Events (All Patients, N = 45): 79
TEAE Psychiatric Disorders, patients (%) (All Patients, N = 45): (28.9) %
TEAE Respiratory, Thoracic, and Mediastinal Disorders, patients (%) (All Patients, N = 45): (24.4) %
TEAE Thrombocytopenia, patients (%) (All Patients, N = 45): 17.8%
TEAE Vascular Disorders, patients (%) (All Patients, N = 45): 17.8%
TEAE Vision blurred, patients (%) (All Patients, N = 45): 8.9%
TEAE Vomiting, patients (%) (All Patients, N = 45): 8.9%
TEAE White blood cell count decreased, patients (%) (All Patients, N = 45): 11.1%
TEAE leading to death, No of Events (All Patients, N = 45): 17
TEAE leading to early discontinuation, No of Events (All Patients, N = 45): 10
TEAE, No of Events (All Patients, N = 45): 428
≥1 TEAE leading to death, patients (%) (All Patients, N = 45): (4.4) %
1 related SAE, patients (%) [1]: (24.4) %
related SAE, No of Events [1]: 19/29 and 19/30 and 11/30 and 19
related TEAE, No of Events [1]: 304
SAE headache, patients (Cohort 1): 1
SAE infections and infestations, events (Cohort 1): 4
SAE infections and infestations, patients (Cohort 1): 3
SAE nervous system disorders, events (Cohort 1): 3
SAE nervous system disorders, patients (Cohort 1): 3
SAE respiratory, thoracic and mediastinal disorders, events (Cohort 1): 3
SAE respiratory, thoracic and mediastinal disorders, patients (Cohort 1): 2
Death, No of Events (Cohort 1, N = 30): 1
Death, patients (%) (Cohort 1, N = 30): (3.3) %
SAE, No of Events (Cohort 1, N = 30): 16
TEAE Anaemia, patients (%) (Cohort 1, N = 30): 23.3% and 23%
TEAE Blood and Lymphatic System Disorders, events (Cohort 1, N = 30): 41
TEAE Confusional state, patients (%) (Cohort 1, N = 30): 10.0%
TEAE Constipation, patients (%) (Cohort 1, N = 30): 23.3% and 23%
TEAE Convulsion, patients (%) (Cohort 1, N = 30): 10.0%
TEAE Definitely Related to AR-67, No of Events (Cohort 1, N = 30): 36
TEAE Definitely Related to AR-67, patients (%) (Cohort 1, N = 30): (40.0) %
TEAE Diarrhoea, patients (%) (Cohort 1, N = 30): 16.7%
TEAE Dizziness, patients (%) (Cohort 1, N = 30): 16.7%
TEAE Dyspepsia, patients (%) (Cohort 1, N = 30): 13.3%
TEAE Eye Disorders, patients (%) (Cohort 1, N = 30): (10.0) %
TEAE Flushing, patients (%) (Cohort 1, N = 30): (16.7) %
TEAE Gastrointestinal Disorders, patients (%) (Cohort 1, N = 30): (50.0) %
TEAE General Disorders and Administration Site Conditions, patients (%) (Cohort 1, N = 30): (36.7) %
TEAE Headache, patients (%) (Cohort 1, N = 30): 23.3% and 23%
TEAE Hiccups, patients (%) (Cohort 1, N = 30): (10.0) %
TEAE Hyperglycaemia, patients (%) (Cohort 1, N = 30): (13.3) %
TEAE Hypopho sphataemia, patients (%) (Cohort 1, N = 30): (13.3) %
TEAE Intensity Life Threatening, No of Events (Cohort 1, N = 30): 3
TEAE Intensity Life Threatening, patients (%) (Cohort 1, N = 30): (10.0) %
TEAE Intensity Mild, No of Events (Cohort 1, N = 30): 177
TEAE Intensity Mild, patients (%) (Cohort 1, N = 30): (73.3) %
TEAE Intensity Moderate, No of Events (Cohort 1, N = 30): 100
TEAE Intensity Moderate, patients (%) (Cohort 1, N = 30): (66.7) %
TEAE Intensity Severe, No of Events (Cohort 1, N = 30): 59
TEAE Intensity Severe, patients (%) (Cohort 1, N = 30): (60.0) %
TEAE Investigations SOC, events (Cohort 1, N = 30): 101
TEAE Leukopenia, patients (%) (Cohort 1, N = 30): 16.7%
TEAE Lymphocyte count decreased, patients (%) (Cohort 1, N = 30): 16.7%
TEAE Metabolism and Nutrition Disorders, patients (%) (Cohort 1, N = 30): (26.7) %
TEAE Muscular weakness, patients (%) (Cohort 1, N = 30): 10.0%
TEAE Musculoskeletal and Connective Tissue Disorders, patients (%) (Cohort 1, N = 30): (33.3) %
TEAE Musculoskeletal pain, patients (%) (Cohort 1, N = 30): 10.0%
